We go through one compound from patent US9266871B2, “Trifluoromethyl-substituted fused pyrimidines and their use” (BAYER PHARMA AKTIENGESELLSCHAFT, priority 2013, dated 2016).

The MRT is the average time that molecules of a dose stay in the body. The term half-life denotes the time in which the quantity being followed falls by half. Read a high half-life as slow decline.

The data set can be described thus: Pharmacokinetic parameters following intravenous and oral administration. Format: in vivo, rat. The note with it: rats, i.v. 0.3 mg/kg and oral 1 mg/kg. From the text:
• Klaus Witte, Kai Hu, Johanna Swiatek, Claudia Müssig, Georg Ertl and Björn Lemmer: Experimental heart failure in rats: effects on cardiovascular circadian rhythms and on myocardial β-adrenergic signaling. Cardiovasc Res 47 (2): […], 2000; Kozo Okamoto: Spontaneous hypertension in rats. Int Rev Exp Pathol 7: 227-270, 1969; Maarten van den Buuse: Circadian Rhythms of Blood Pressure, Heart Rate, and Locomotor Activity in Spontaneously Hypertensive Rats as Measured With Radio-Telemetry. Physiology & Behavior 55(4): 783-787, 1994 B-4. Determination of Pharmacokinetic Parameters Following Intravenous and Oral Administration
The pharmacokinetic parameters of the compounds of the formula (I) according to the invention are determined in male CD-1 mice, male Wistar rats and female beagles. Intravenous administration in the case of mice and rats is effected by means of a species-specific plasma/DMSO formulation, and in the case of dogs by means of a water/PEG400/ethanol formulation. In all species, oral administration of the dissolved substance is performed via gavage, based on a water/PEG400/ethanol formulation. The removal of blood from rats is simplified by inserting a silicone catheter into the right Vena jugularis externa prior to substance administration. The operation is effected at least one day prior to the experiment with isofluran anaesthesia and administration of an analgesic ([…]/rimadyl (3/1) 0.1 ml s.c.). The blood is taken (generally more than 10 time points) within a time window including terminal time points of at least 24 to a maximum of 72 hours after substance administration. The blood is removed into heparinized tubes. The blood plasma is then obtained by centrifugation; if required, it can be stored at −20° C. until further processing.
An internal standard (which may also be a chemically unrelated substance) is added to the samples of the compounds of the formula (I) according to the invention, calibration samples and qualifiers, and this is followed by protein precipitation using excess acetonitrile. Addition of a buffer solution matched to the LC conditions, and subsequent vortexing, is followed by centrifugation at 1000 g. The supernatant is analysed by means of LC-MS/MS using C18 reversed-phase columns and variable mobile phase mixtures. The substances are quantified via the peak heights or areas from extracted ion chromatograms of specific selected ion monitoring experiments.
The plasma concentration/time plots determined are used to calculate the pharmacokinetic parameters such as AUC (area under the curve), Cmax, t1/2 (terminal half life), F (bioavailability), MRT (mean residence time) and CL (clearance), using a validated pharmacokinetic calculation programme.
Since the substance quantification is performed in plasma, it is necessary to determine the blood/plasma distribution of the substance in order to be able to adjust the pharmacokinetic parameters correspondingly. For this purpose, a defined amount of substance is incubated in heparinized whole blood of the species in question in a rocking roller mixer for 20 min. After centrifugation at 1000 g, the plasma concentration is measured (by means of LC-MS/MS; see above) and determined by calculating the ratio of the Cblood/Cplasma value.

`C[C@@]1(C(F)(F)F)C(=O)Nc2nc(-c3nn(Cc4ncccc4F)c4ncc(F)cc34)nc(NCCC(F)(F)F)c21` (single isomer, unassigned) [Example 1-1] showed an AUCnorm of 1.77 kg·h/L, a CLblood of 0.70 L/h/kg and an F of 98.8%. For the same compound, where the note is “male, Wistar, rat, plasma”, the MRT came out at 6.6 h and the half-life is 354 min.
